According to the supplement of paper PMC10307832:

How the values were obtained:
Assay in all cases: relative viability (nuclei count vs DMSO), 5 days (fraction); higher = more cells survive
[1] = compound: Cn1cc(-c2cnn3c(N)c(Br)c([C@@H]4CCCNC4)nc23)cn1 + C[C@]1(O)C[C@@H](c2nc(-c3ccc4ccc(-c5ccccc5)nc4c3)c3c(N)nccn32)C1 [Linsitinib] (partner 1 µM)
Procedure, shortened: (§1)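 Relative viability divides the nuclei count in treated wells by that in vehicle wells. Lung cancer cell lines were seeded in 1536-well plates, dosed by pin tool the next day, and fixed and stained after 5 days in one step with final 0.05% Triton X-100, 1% formaldehyde and 1 ug/ml Hoechst. Dosing was a single drug or a fixed anchor-drug dose plus five library-drug doses (not always all listed) in √10 steps, and values are medians of duplicate plates imaged at 4×.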

[2] = compound: Cn1cc(-c2cnn3c(N)c(Br)c([C@@H]4CCCNC4)nc23)cn1 + Nc1nc2[nH]cc(CCc3ccc(C(=O)N[C@@H](CCC(=O)O)C(=O)O)cc3)c2c(=O)[nH]1 [Pemetrexed] (partner 0.2 µM)
Procedure, shortened: as §1

[3] = compound: Cn1cc(-c2cnn3c(N)c(Br)c([C@@H]4CCCNC4)nc23)cn1 + O=C(CCCCCCC(=O)Nc1ccccc1)NO [Vorinostat] (partner 1 µM)
Procedure, shortened: as §1

[4] = compound: Cn1cc(-c2cnn3c(N)c(Br)c([C@@H]4CCCNC4)nc23)cn1 + O=C(c1cc(Cc2n[nH]c(=O)c3ccccc23)ccc1F)N1CCN(C(=O)C2CC2)CC1 [Olaparib] (partner 8 µM)
Procedure, shortened: as §1

Cell Line	relative viability ([1]; first compound 0.05 µM)	relative viability ([1]; first compound 0.1581 µM)	relative viability ([1]; first compound 0.5 µM)	relative viability ([1]; first compound 1.581 µM)	relative viability ([1]; first compound 5 µM)	relative viability ([2]; first compound 0.05 µM)	relative viability ([2]; first compound 0.1581 µM)	relative viability ([2]; first compound 0.5 µM)	relative viability ([2]; first compound 1.581 µM)	relative viability ([2]; first compound 5 µM)	relative viability ([3]; first compound 0.05 µM)	relative viability ([3]; first compound 0.1581 µM)	relative viability ([3]; first compound 0.5 µM)	relative viability ([3]; first compound 1.581 µM)	relative viability ([3]; first compound 5 µM)	relative viability ([4]; first compound 0.05 µM)	relative viability ([4]; first compound 0.1581 µM)	relative viability ([4]; first compound 0.5 µM)	relative viability ([4]; first compound 1.581 µM)	relative viability ([4]; first compound 5 µM)
LC-2-ad	0.907	0.891	0.821	0.884	0.86	0.293	0.295	0.265	0.25	0.239	0.683	0.808	0.662	0.76	0.735	0.753	0.686	0.648	0.727	0.726
LCLC-97TM1	0.194	0.2	0.184	0.21	0.176	0.172	0.185	0.189	0.171	0.126	0.67	0.95	0.936	0.582	0.433	0.346	0.605	0.327	0.382	0.38
LCLC-103H	0.978	1.18	1.15	1.06	0.915	0.539	0.463	0.482	0.428	0.298	0.738	0.879	0.824	0.615	0.597	0.842	0.804	0.77	0.746	0.711
LK-2	0.548	0.446	0.51	0.369	0.317	0.271	0.309	0.271	0.278	0.124	0.276	0.351	0.236	0.249	0.162	0.664	0.648	0.771	0.568	0.373
LOU-NH91	0.963	0.868	0.929	0.899	0.734	0.398	0.289	0.254	0.25	0.64	0.849	0.911	0.908	0.863	0.703	0.938	0.933	0.867	0.774	0.778
LU99A	0.533	0.622	0.496	0.557	0.422	0.19	0.144	0.139	0.124	0.129	0.46	0.469	0.452	0.36	0.216	0.244	0.235	0.236	0.221	0.163
LXF-289	0.976	1.07	1.07	0.903	1.04	0.985	0.953	0.823	0.779	0.645	0.731	0.795	0.745	0.746	0.757	1.17	1.27	1.04	1.17	1.31
NCI-H23	0.575	0.642	0.466	0.449	0.244	0.582	0.539	0.504	0.275	0.19	0.547	0.508	0.424	0.206	0.125	0.283	0.286	0.229	0.227	0.174
NCI-H322M	0.86	0.943	0.889	0.864	0.828	0.602	0.548	0.561	0.49	0.363	0.871	0.831	0.754	0.626	0.394	0.323	0.704	0.775	0.635	0.418
NCI-H358	0.7	0.626	0.608	0.581	0.523	0.177	0.164	0.162	0.166	0.129	0.748	0.732	0.422	0.455	0.302	0.675	0.643	0.598	0.372	0.414
NCI-H441	0.802	0.346	0.461	0.56	0.563	0.261	0.283	0.254	0.277	0.25	0.759	0.896	0.721	0.429	0.326	0.672	0.697	0.494	0.37	0.43
NCI-H460	0.611	0.68	0.728	0.217	0.183	0.0569	0.0582	0.0504	0.0664	0.0552	0.926	1.1	0.245	0.405	0.111	0.341	0.195	0.38	0.233	0.127
NCI-H520	0.991	0.939	0.931	0.733	0.561	0.596	0.584	0.554	0.452	0.296	0.681	0.676	0.702	0.467	0.446	0.353	0.367	0.302	0.326	0.236
NCI-H596	1.07	1.11	1.01	0.986	1.16	0.481	0.462	0.534	0.371	0.326	0.517	0.602	0.624	0.356	0.455	0.633	0.596	0.622	0.655	0.621
NCI-H647	1.12	1.24	0.85	0.796	0.42	0.174	0.104	0.104	0.114	0.0596	0.625	0.607	0.522	0.256	0.15	0.686	0.64	0.332	0.202	0.12
NCI-H650	0.808	0.775	0.846	0.795	0.657	0.893	0.93	0.92	0.919	0.63	0.412	0.514	0.384	0.447	0.337	0.427	0.557	0.523	0.551	0.397

Cell Line	relative viability ([1]; first compound 0.05 µM)	relative viability ([1]; first compound 0.1581 µM)	relative viability ([1]; first compound 0.5 µM)	relative viability ([1]; first compound 1.581 µM)	relative viability ([1]; first compound 5 µM)	relative viability ([2]; first compound 0.05 µM)	relative viability ([2]; first compound 0.1581 µM)	relative viability ([2]; first compound 0.5 µM)	relative viability ([2]; first compound 1.581 µM)	relative viability ([2]; first compound 5 µM)	relative viability ([3]; first compound 0.05 µM)	relative viability ([3]; first compound 0.1581 µM)	relative viability ([3]; first compound 0.5 µM)	relative viability ([3]; first compound 1.581 µM)	relative viability ([3]; first compound 5 µM)	relative viability ([4]; first compound 0.05 µM)	relative viability ([4]; first compound 0.1581 µM)	relative viability ([4]; first compound 0.5 µM)	relative viability ([4]; first compound 1.581 µM)	relative viability ([4]; first compound 5 µM)
NCI-H661	0.557	0.592	0.579	0.479	0.314	0.98	0.635	0.667	0.754	0.588	0.829	0.82	0.833	0.736	0.63	0.874	0.83	0.745	0.511	0.538
NCI-H838	0.984	1.09	0.987	0.824	0.962	0.229	0.168	0.175	0.17	0.151	0.788	0.779	0.742	0.65	0.527	0.79	0.911	0.797	0.611	0.648
NCI-H1355	0.798	0.911	0.738	0.82	0.814	0.978	1.16	1.11	1.08	0.88	0.645	0.743	0.664	0.524	0.564	0.811	0.89	0.788	0.795	0.69
NCI-H1395	1.19	0.679	1.11	0.616	0.431	0.695	0.445	0.535	0.578	0.446	0.533	0.427	0.556	0.49	0.317	0.432	0.445	0.395	0.376	0.372
NCI-H1437	1.17	1.16	0.954	0.604	0.821	0.294	0.226	0.248	0.172	0.194	0.907	0.927	0.955	0.692	0.508	0.664	0.726	0.71	0.646	0.595
NCI-H1651	0.949	0.977	0.869	0.574	0.356	0.549	0.406	0.559	0.32	0.198	0.543	0.587	0.512	0.531	0.39	0.17	0.146	0.166	0.164	0.145
NCI-H1666	0.896	0.745	0.653	0.714	0.711	0.837	0.826	0.749	0.63	0.658	1.16	1.03	0.886	0.906	0.844	0.777	0.797	0.7	0.716	0.741
NCI-H1734	0.942	0.932	0.901	0.778	0.744	0.411	0.384	0.347	0.307	0.265	0.788	0.75	0.653	0.586	0.348	0.625	0.647	0.52	0.599	0.441
NCI-H1755	1.07	1.04	0.978	0.924	0.972	0.398	0.397	0.401	0.373	0.272	0.869	0.828	0.653	0.642	0.503	0.964	0.989	0.931	0.989	0.847
NCI-H1793	0.983	1.18	0.87	0.83	0.513	1.02	0.838	0.79	0.766	0.49	0.839	0.717	0.856	0.469	0.181	1.02	1.08	0.921	0.718	0.472
NCI-H1915	1.1	1.07	1.05	1.16	1.14	0.545	0.435	0.422	0.372	0.358	0.511	0.535	0.666	0.574	0.432	0.312	0.268	0.299	0.261	0.236
NCI-H1944	1.16	1.2	1.12	1.06	0.867	0.688	0.511	0.541	0.337	0.152	0.566	0.575	0.463	0.452	0.219	0.408	0.448	0.374	0.378	0.349
NCI-H1975	1.08	0.918	0.842	0.79	0.805	0.304	0.25	0.249	0.261	0.189	0.793	0.715	0.686	0.547	0.548	0.841	0.792	0.7	0.581	0.708
NCI-H1993	0.718	0.69		0.672	0.739	0.572	0.595	0.693	0.482	0.575	0.803	0.873	0.921	0.713	0.636	0.959	1.05	1.01	0.969	1.1
NCI-H2009	1.14	1.31	1.22	1.12	1.09	1.01	1.02	0.99	0.895	0.683	0.82	0.806	0.722	0.818	0.528	0.685	0.749	0.714	0.872	0.595
NCI-H2023	0.582	0.452	0.421	0.244	0.135	0.175	0.124	0.115	0.118	0.112	0.65	0.349	0.428	0.177	0.097	0.473	0.336	0.253	0.253	0.139
